Reference: patent US4681969A, “Process for the preparation of an enantiomeric pair of isomers of cyfluthrin” (Imperial Chemical Industries PLC, priority 1984, dated 1987)
Values after ≈ are worked out from the molar mass of the structure shown. Like-named read-outs stand apart in the source and are kept apart here.

Tests used:
[1] = relative insecticidal efficacy (general statement); assay type: in vivo; conditions: Starting Material vs previously described mixture of cis and trans isomers; Racemate vs Starting Material
[2] = tested on: Heliothis virescens (tobacco budworm); assay: LC50 against larval tobacco budworm; assay type: in vivo; conditions: for LC50: read-out: LC50 (concentration required to kill 50% of a population)
Text: The isomers were obtained by the h.p.l.c. technique shown in the next Example.

## CC1(C)[C@H](C(=O)OC(C#N)c2ccc(F)c(Oc3ccccc3)c2)[C@@H]1C=C(Cl)Cl (mixture of isomers) [The Starting Material, (RS) -α-cyano-4-fluoro-3-phenoxybenzyl (1RS,cis)-3-(2,2-dichlorovinyl)-2,2-dimethylcyclopropane carboxylate]
[1]
  relative insecticidal efficacy: potent insecticide of greater relative efficacy than the previously described mixture of cis and trans isomers

## CC1(C)[C@H](C=C(Cl)Cl)[C@H]1C(=O)O[C@H](C#N)c1ccc(F)c(Oc2ccccc2)c1 (relative stereo) [1R,trans-S/1S,trans-R]
[2]; larval Heliothis virescens
  LC50: 3.6 µg/mL (≈ 8.29 µM)

## CC1(C)[C@H](C(=O)O[C@H](C#N)c2ccc(F)c(Oc3ccccc3)c2)[C@@H]1C=C(Cl)Cl (relative stereo) [1R,cis-S/1S,cis-R, (S)-α-cyano-4-fluoro-3-phenoxybenzyl (1R,cis)-3-(2,2-dichlorovinyl)-2,2-dimethylcyclopropanecarboxylate and its enantiomer, (R)-α-cyano-4-fluoro-3-phenoxybenzyl (1S,cis)-3-(2,2-dichlorovinyl)-2,2-dimethylcyclopropane carboxylate]
[2]; larval Heliothis virescens, from LC50 values
  efficacy relative to cyfluthrin: about four times more efficacious than cyfluthrin
[2]; larval Heliothis virescens
  LC50: 1.8 µg/mL (≈ 4.14 µM)
[1]
  relative insecticidal efficacy: even more effective insecticidal product

## CC1(C)C(C=C(Cl)Cl)C1C(=O)OC(C#N)c1ccc(F)c(Oc2ccccc2)c1 (racemic) [Cyfluthrin, (R,S)-α-cyano-4-fluoro-3-phenoxybenzyl (1R,S-cis)/(1R,S-trans)-3-(2,2-dichlorovinyl)-2,2-dimethylcyclopropane carboxylate]
[2]; larval Heliothis virescens
  LC50: 7.1 µg/mL (≈ 16.3 µM)

## CC1(C)[C@H](C(=O)O[C@@H](C#N)c2ccc(F)c(Oc3ccccc3)c2)[C@@H]1C=C(Cl)Cl (relative stereo) [1S,cis-S/1R,cis-R, (R)-α-cyano-4-fluoro-3-phenoxybenzyl (1R,cis)-3-(2,2-dichlorovinyl)-2,2-dimethylcyclopropane carboxylate and (S)-α-cyano-4-fluoro-3-phenoxybenzyl (1S,cis)-3-(2,2-dichlorovinyl)-2,2-dimethylcyclopropane carboxylate]
[2]; Heliothis virescens
  LC50: 23.4 µg/mL (≈ 53.9 µM)
